Assay results as given in ChEMBL document CHEMBL1139288, “A simple synthesis of four stereoisomers of roseoside and their inhibitory activity on leukotriene release from mice bone marrow-derived cultured mast cells” (2009).

Assay: Inhibition of leukotriene release in ICR mouse BMCMC […] after 6 hrs by ELISA
Assay type: functional

In order of falling “inhibition (INH)” value:
1. CC1=CC(=O)CC(C)(C)[C@@]1(O)/C=C/[C@H](C)O[C@@H]1O[C@H](CO)[C@@H](O)[C@H](O)[C@H]1O [6S,9S-ROSEOSIDE]  70.3%
2. CC1=CC(=O)CC(C)(C)[C@@]1(O)/C=C/[C@@H](C)O[C@@H]1O[C@H](CO)[C@@H](O)[C@H](O)[C@H]1O [6S,9R-ROSEOSIDE]  67.4%
3. CC1=CC(=O)CC(C)(C)[C@]1(O)/C=C/[C@H](C)O[C@@H]1O[C@H](CO)[C@@H](O)[C@H](O)[C@H]1O  36.7%
4. CC1=CC(=O)CC(C)(C)[C@]1(O)/C=C/[C@@H](C)O[C@@H]1O[C@H](CO)[C@@H](O)[C@H](O)[C@H]1O  22.9%
